Measurements: PMC6097718 (Journal of medicinal chemistry, 2018)
One block for each compound: values may come before it.

Columns and labels:
IGROV1 EOC cells = conditions: colony-forming assay; cited from earlier work
[1] = test system: IGROV1 human EOC xenografts; experiment: In vivo efficacy trial with IGROV1 EOC xenografts in SCID mice
IGROV1 knockdown cells = experiment: Growth inhibition in IGROV1 FRα knockdown cells; type: cell-based, human; conditions: up to 1000 nM drug
[2] = test system: R1–11-FR2 HeLa cells expressing FRα; experiment: Cell proliferation assay, FRα-expressing HeLa subline R1–11-FR2
[3] = test system: R1–11-PCFT4 HeLa cells expressing PCFT; experiment: Cell proliferation assay, PCFT-expressing HeLa subline R1–11-PCFT4

Compound: Nc1nc2[nH]c(CCCc3ccc(C(=O)N[C@@H](CCC(=O)O)C(=O)O)s3)cc2c(=O)[nH]1 [Compound 1]
- cell killing (IGROV1 EOC cells): greater than 99%
- tumor burden range ([1]; day 60, folate-deficient diet, iv, 11 Q4dX4 95 (mg/kg)/inj, 1 Q4dX3 32 (mg/kg)/inj): 0 to 196 mg
- acute or long-term toxicities ([1]; equitoxic dose levels, SCID mice): no acute or long-term toxicities other than completely reversible loss of weight
- antitumor activity on standard (high folate) diet ([1]; standard folate-replete diet): ablated
- weight loss or adverse symptoms on standard (high folate) diet ([1]; standard folate-replete diet): No weight losses or other adverse symptoms were observed

Compound: Nc1nc2[nH]c(CCCCc3ccc(C(=O)N[C@@H](CCC(=O)O)C(=O)O)cc3)cc2c(=O)[nH]1 [Compound 2]
- growth inhibition upon FRα knockdown (IGROV1 knockdown cells): complete loss of growth inhibition

Compound: Nc1nc2[nH]c(CCCCc3csc(C(=O)N[C@@H](CCC(=O)O)C(=O)O)c3)cc2c(=O)[nH]1 [Compound 5]
- growth inhibition upon FRα knockdown (IGROV1 knockdown cells): complete loss of growth inhibition

Compound: Nc1nc2[nH]c(CCCCc3ccc(C(=O)N[C@@H](CCC(=O)O)C(=O)O)c(F)c3)cc2c(=O)[nH]1 [Compound 8, (4-(4-(2-Amino-4-oxo-4,7-dihydro-3H-pyrrolo[2,3-d]pyrimidin-6-yl)butyl)-2-fluorobenzoyl)-L-glutamic Acid]
- growth inhibition upon FRα knockdown (IGROV1 knockdown cells): complete loss of growth inhibition

- fold IC50 below that for compound 1 ([2]; R1–11-FR2 cells): 6 fold
- fold IC50 below that for compound 1 ([3]; R1–11-PCFT cells): 10 fold
Compound: Nc1nc2[nH]c(CCCc3ccc(C(=O)N[C@@H](CCC(=O)O)C(=O)O)c(F)c3)cc2c(=O)[nH]1 [Compound 9, (4-(3-(2-Amino-4-oxo-4,7-dihydro-3H-pyrrolo[2,3-d]pyrimidin-6-yl)propyl)-2-fluorobenzoyl)-L-glutamic Acid]

Compound: Nc1nc2[nH]c(CCCCc3cnc(C(=O)N[C@@H](CCC(=O)O)C(=O)O)c(F)c3)cc2c(=O)[nH]1 [Compound 10, (5-(4-(2-Amino-4-oxo-4,7-dihydro-3H-pyrrolo[2,3-d]pyrimidin-6-yl)butyl)-3-fluoropicolinoyl)-L-glutamic Acid]
- growth inhibition upon FRα knockdown (IGROV1 knockdown cells): complete loss of growth inhibition

- selectivity for PCFT versus RFC (IC50 R1–11-RFC2/IC50 R1–11-PCFT) ([3]; HeLa sublines): ~ 3
Compound: Nc1nc2[nH]c(CCCc3csc(C(=O)N[C@@H](CCC(=O)O)C(=O)O)c3F)cc2c(=O)[nH]1 [Compound 12, (4-(3-(2-Amino-4-oxo-4,7-dihydro-3H-pyrrolo[2,3-d]pyrimidin-6-yl)propyl)-3-fluorothiophene-2-carbonyl)-L-glutamic Acid]
- fold reduced IC50 of fluorinated versus nonfluorinated counterpart ([2]; R1–11-FR2 HeLa cells): 2–3 fold
